Drawing on patent US9181239B2, “Pyridopyrimidinone inhibitors of kinases” (AbbVie Inc., priority 2011, dated 2015), this text covers Ki for 29 compounds.

The test deals with T1, Wee1 kinase (Homo sapiens, UniProt P30291).
T1 construct: purchased Carnabio 05-177
T1 sequence (P30291 whole entry): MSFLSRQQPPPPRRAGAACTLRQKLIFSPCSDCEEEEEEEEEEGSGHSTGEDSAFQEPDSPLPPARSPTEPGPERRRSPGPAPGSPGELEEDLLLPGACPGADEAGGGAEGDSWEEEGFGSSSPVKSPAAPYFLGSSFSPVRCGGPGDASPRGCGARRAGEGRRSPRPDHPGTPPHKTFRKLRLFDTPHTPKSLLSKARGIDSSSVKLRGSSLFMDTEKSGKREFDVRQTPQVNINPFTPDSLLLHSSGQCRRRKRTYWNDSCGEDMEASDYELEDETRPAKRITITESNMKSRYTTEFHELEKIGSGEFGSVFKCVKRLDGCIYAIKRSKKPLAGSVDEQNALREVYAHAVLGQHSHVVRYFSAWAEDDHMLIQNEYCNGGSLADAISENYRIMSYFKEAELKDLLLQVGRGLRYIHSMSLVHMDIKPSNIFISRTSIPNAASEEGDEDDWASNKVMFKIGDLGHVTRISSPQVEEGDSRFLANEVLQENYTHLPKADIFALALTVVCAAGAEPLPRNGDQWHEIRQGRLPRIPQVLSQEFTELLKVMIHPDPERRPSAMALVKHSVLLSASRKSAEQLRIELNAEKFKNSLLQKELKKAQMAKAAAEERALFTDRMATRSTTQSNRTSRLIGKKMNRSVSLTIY
As to the kind of experiment: Wee1 time-resolved fluorescence equilibrium binding assay (probe displacement). Conditions: GST-tagged-Wee1 kinase 2 nM, fluorescent probe 300 nM, 1 hour incubation; read-out: Wee-1 binding (Ki nM). How it is done: Wee1 kinase was assayed using a time-resolved fluorescence equilibrium binding assay monitoring displacement of a rapidly reversible Oregon Green-labeled ATP-competitive kinase probe (N-(2-(2-(2-(4-(4-(5-chloro-4-(2-(1-hydroxycyclobutyl)thiazol-5-yl)-1H-pyrrolo[2,3-b]pyridin-2-yl)phenyl)piperazin-1-yl)ethoxy)ethoxy)ethyl)-2′,7′-difluoro-3′,6′-dihydroxy-3-oxo-3H-spiro[isobenzofuran-1,9′-xanthene]-5-carboxamide) by competitive Wee1 inhibitors.
In the case of `Cn1cc(-c2c(Cl)cccc2Cl)c(=O)c2cnc(Nc3ccc4c(c3)CNC4)nc21` [Example 49, 6-(2,6-dichlorophenyl)-2-(2,3-dihydro-1H-isoindol-5-ylamino)-8-methylpyrido[2,3-d]pyrimidin-5(8H)-one], the inhibition constant Ki amounted to 0.8 nM.
As to `CN1CCC(Nc2ccc(Nc3ncc4c(=O)c(-c5c(F)cccc5Cl)cn(C)c4n3)cc2)CC1` [Example 69, 6-(2-chloro-6-fluorophenyl)-8-methyl-2-({4-[(1-methylpiperidin-4-yl)amino]phenyl}amino)pyrido[2,3-d]pyrimidin-5(8H)-one], the Ki worked out at 3 nM.
For the compound `CCn1cc(-c2c(Cl)cccc2Cl)c(=O)c2cnc(Nc3ccc(N4CCN(C)CC4)cc3)nc21` [Example 31, 6-(2,6-dichlorophenyl)-8-ethyl-2-{[4-(4-methylpiperazin-1-yl)phenyl]amino}pyrido[2,3-d]pyrimidin-5(8H)-one], the inhibition constant Ki came to 0.6 nM.
For `Cn1cc(-c2c(Cl)cccc2Cl)c(=O)c2cnc(Nc3ccc4c(c3)CCNC4)nc21` [Example 46, 6-(2,6-dichlorophenyl)-8-methyl-2-(1,2,3,4-tetrahydroisoquinolin-6-ylamino)pyrido[2,3-d]pyrimidin-5(8H)-one], the inhibitory constant (Ki) turned out to be 1.1 nM.
`CN1Cc2cc(Nc3ncc4c(=O)c(-c5c(F)cccc5Cl)cn(C)c4n3)ccc2C2(CC2)C1` [Example 34, 6-(2-chloro-6-fluorophenyl)-8-methyl-2-[(2′-methyl-2′,3′-dihydro-1′H-spiro[cyclopropane-1,4′-isoquinolin]-7′-yl)amino]pyrido[2,3-d]pyrimidin-5(8H)-one]: the inhibition constant Ki turned out to be 0.4 nM.
Then `CN1CCN(c2ccc(Nc3ncc4c(=O)c(-c5c(Cl)cccc5Cl)c5n(c4n3)CCC5)cc2)CC1` [Example 6, 6-(2,6-dichlorophenyl)-2-{[4-(4-methylpiperazin-1-yl)phenyl]amino}-8,9-dihydropyrimido[4,5-e]indolizin-5(7H)-one], with 5.7 nM; and `Cn1cc(-c2c(Cl)cccc2Cl)c(=O)c2cnc(Nc3ccc4c(c3)CNCC43CC3)nc21` [Example 21, 6-(2,6-dichlorophenyl)-2-(2′,3′-dihydro-1′H-spiro[cyclopropane-1,4′-isoquinolin]-7′-ylamino)-8-methylpyrido[2,3-d]pyrimidin-5(8H)-one], with 0.3 nM; and `O=c1c(-c2c(Cl)cccc2Cl)cn(C2CC2)c2nc(Nc3ccc4c(c3)CNCC43CC3)ncc12` [Example 24, 8-cyclopropyl-6-(2,6-dichlorophenyl)-2-(2′,3′-dihydro-1′H-spiro[cyclopropane-1,4′-isoquinolin]-7′-ylamino)pyrido[2,3-d]pyrimidin-5(8H)-one], with 0.8 nM.
As for `CN(C)C1Cc2ccc(Nc3ncc4c(=O)c(-c5c(Cl)cccc5Cl)cn(C5CC5)c4n3)cc2C1` (centres unmarked) [Example 25, 8-cyclopropyl-6-(2,6-dichlorophenyl)-2-{[2-(dimethylamino)-2,3-dihydro-1H-inden-5-yl]amino}pyrido[2,3-d]pyrimidin-5(8H)-one], the inhibition constant (Ki) was 1.2 nM.
Consider `CN1CCN(c2ccc(Nc3ncc4c(=O)c(-c5c(F)cccc5Cl)cn(C)c4n3)cc2)CC1` [Example 33, 6-(2-chloro-6-fluorophenyl)-8-methyl-2-{[4-(4-methylpiperazin-1-yl)phenyl]amino}pyrido[2,3-d]pyrimidin-5(8H)-one], for which the inhibition constant (Ki) came to 1.5 nM.
Turning to `CN1Cc2cc(Nc3ncc4c(=O)c(-c5c(Cl)cccc5Cl)c[nH]c4n3)ccc2C(C)(C)C1` [Example 42, 6-(2,6-dichlorophenyl)-2-[(2,4,4-trimethyl-1,2,3,4-tetrahydroisoquinolin-7-yl)amino]pyrido[2,3-d]pyrimidin-5(8H)-one], the inhibitory constant (Ki) is 0.2 nM.
`CN(C)C1Cc2ccc(Nc3ncc4c(=O)c(-c5c(Cl)cccc5Cl)c[nH]c4n3)cc2C1` (centres unmarked) [Example 41, 6-(2,6-dichlorophenyl)-2-{[2-(dimethylamino)-2,3-dihydro-1H-inden-5-yl]amino}pyrido[2,3-d]pyrimidin-5(8H)-one]: the Ki came to 0.4 nM.
As for `CN(C)CCCN1CCN(c2ccc(Nc3ncc4c(=O)c(-c5c(Cl)cccc5Cl)cn(C)c4n3)cc2)CC1` [Example 78, 6-(2,6-dichlorophenyl)-2-[(4-{4-[3-(dimethylamino)propyl]piperazin-1-yl}phenyl)amino]-8-methylpyrido[2,3-d]pyrimidin-5(8H)-one], the inhibitory constant (Ki) is 1.2 nM.
Take `CN1CCC(Oc2ccc(Nc3ncc4c(=O)c(-c5c(Cl)cccc5Cl)cn(C)c4n3)cc2)CC1` [Example 68, 6-(2,6-dichlorophenyl)-8-methyl-2-({4-[(1-methylpiperidin-4-yl)oxy]phenyl}amino)pyrido[2,3-d]pyrimidin-5(8H)-one]: the Ki was 0.4 nM.
Turning to `CN(C)C1CCN(c2ccc(Nc3ncc4c(=O)c(-c5c(Cl)cccc5Cl)cn(C)c4n3)cc2)CC1` [Example 44, 6-(2,6-dichlorophenyl)-2-({4-[4-(dimethylamino)piperidin-1-yl]phenyl}amino)-8-methylpyrido[2,3-d]pyrimidin-5(8H)-one], the Ki was determined as 0.5 nM.
For the compound `CN1CCN(c2ccc(Nc3ncc4c(=O)c(-c5c(Cl)cccc5Cl)cn(-c5ccccc5)c4n3)cc2)CC1` [Example 4, 6-(2,6-dichlorophenyl)-2-{[4-(4-methylpiperazin-1-yl)phenyl]amino}-8-phenylpyrido[2,3-d]pyrimidin-5(8H)-one], the inhibition constant Ki came out at 0.1 nM.
To `O=c1c(-c2c(Cl)cccc2Cl)c[nH]c2nc(Nc3ccc4c(c3)CNCC43CC3)ncc12` [Example 43, 6-(2,6-dichlorophenyl)-2-(2′,3′-dihydro-1′H-spiro[cyclopropane-1,4′-isoquinolin]-7′-ylamino)pyrido[2,3-d]pyrimidin-5(8H)-one] belongs 0.3 nM; to `Cn1cc(-c2c(Cl)cccc2Cl)c(=O)c2cnc(Nc3ccc4c(c3)CNC4(C)C)nc21` [Example 65, 6-(2,6-dichlorophenyl)-2-[(1,1-dimethyl-2,3-dihydro-1H-isoindol-5-yl)amino]-8-methylpyrido[2,3-d]pyrimidin-5(8H)-one], 0.3 nM; to `Cn1cc(-c2c(Cl)cccc2Cl)c(=O)c2cnc(Nc3ccc4c(c3)CC(N3CCCC3)C4)nc21` (centres unmarked) [Example 55, 6-(2,6-dichlorophenyl)-8-methyl-2-{[2-(pyrrolidin-1-yl)-2,3-dihydro-1H-inden-5-yl]amino}pyrido[2,3-d]pyrimidin-5(8H)-one], 0.4 nM.
To `Cn1cc(-c2c(F)cccc2Cl)c(=O)c2cnc(Nc3ccc(NC4CCNCC4)cc3)nc21` [Example 73, 6-(2-chloro-6-fluorophenyl)-8-methyl-2-{[4-(piperidin-4-ylamino)phenyl]amino}pyrido[2,3-d]pyrimidin-5(8H)-one] belongs 2.8 nM; to `CN(C)C1Cc2ccc(Nc3ncc4c(=O)c(-c5c(Cl)cccc5Cl)cn(C)c4n3)cc2C1` (centres unmarked) [Example 22, 6-(2,6-dichlorophenyl)-2-{[2-(dimethylamino)-2,3-dihydro-1H-inden-5-yl]amino}-8-methylpyrido[2,3-d]pyrimidin-5(8H)-one], 0.6 nM; to `CN1CCN(C2Cc3ccc(Nc4ncc5c(=O)c(-c6c(Cl)cccc6Cl)cn(C)c5n4)cc3C2)CC1` (centres unmarked) [Example 57, 6-(2,6-dichlorophenyl)-8-methyl-2-{[2-(4-methylpiperazin-1-yl)-2,3-dihydro-1H-inden-5-yl]amino}pyrido[2,3-d]pyrimidin-5(8H)-one], 0.9 nM.
As to `CN1CCN(c2ccc(Nc3ncc4c(=O)c(-c5c(Cl)cccc5Cl)cn(CC(F)(F)F)c4n3)cc2)CC1` [Example 11, 6-(2,6-dichlorophenyl)-2-{[4-(4-methylpiperazin-1-yl)phenyl]amino}-8-(2,2,2-trifluoroethyl)pyrido[2,3-d]pyrimidin-5(8H)-one], the inhibition constant Ki was determined as 3 nM.
As to `Cn1cc(-c2c(Cl)cccc2Cl)c(=O)c2cnc(Nc3ccc(N[C@H]4CC[C@H](N(C)C)CC4)cc3)nc21` [Example 76, 6-(2,6-dichlorophenyl)-2-[(4-{[trans-4-(dimethylamino)cyclohexyl]amino}phenyl)amino]-8-methylpyrido[2,3-d]pyrimidin-5(8H)-one], the inhibition constant Ki was 0.7 nM.
On to `CN1CCN(c2ccc(Nc3ncc4c(=O)c(-c5c(Cl)cccc5Cl)cn(-c5ccncc5)c4n3)cc2)CC1` [Example 7, 6-(2,6-dichlorophenyl)-2-{[4-(4-methylpiperazin-1-yl)phenyl]amino}-8-(pyridin-4-yl)pyrido[2,3-d]pyrimidin-5(8H)-one], for which the inhibitory constant (Ki) was 0.6 nM.
On to `CN1CCN(c2ccc(Nc3ncc4c(=O)c(-c5c(Cl)cccc5Cl)cn(CC(C)(C)O)c4n3)cc2)CC1` [Example 16, 6-(2,6-dichlorophenyl)-8-(2-hydroxy-2-methylpropyl)-2-{[4-(4-methylpiperazin-1-yl)phenyl]amino}pyrido[2,3-d]pyrimidin-5(8H)-one], for which the inhibitory constant (Ki) came out at 20 nM.
Consider `CN1Cc2cc(Nc3ncc4c(=O)c(-c5c(F)cccc5Cl)cn(C)c4n3)ccc2C1(C)C` [Example 70, 6-(2-chloro-6-fluorophenyl)-8-methyl-2-[(1,1,2-trimethyl-2,3-dihydro-1H-isoindol-5-yl)amino]pyrido[2,3-d]pyrimidin-5(8H)-one], for which the Ki amounted to 0.2 nM.
Then `CN1Cc2cc(Nc3ncc4c(=O)c(-c5c(Cl)cccc5Cl)cn(C5CC5)c4n3)ccc2C(C)(C)C1` [Example 23, 8-cyclopropyl-6-(2,6-dichlorophenyl)-2-[(2,4,4-trimethyl-1,2,3,4-tetrahydroisoquinolin-7-yl)amino]pyrido[2,3-d]pyrimidin-5(8H)-one], with 0.8 nM; and `CN(C)CCn1cc(-c2c(Cl)cccc2Cl)c(=O)c2cnc(Nc3ccc(N4CCN(C)CC4)cc3)nc21` [Example 13, 6-(2,6-dichlorophenyl)-8-[2-(dimethylamino)ethyl]-2-{[4-(4-methylpiperazin-1-yl)phenyl]amino}pyrido[2,3-d]pyrimidin-5(8H)-one], with 24 nM.
